Experimental data from US7445803B2, “Chromium (III) alpha amino acid complexes” (priority 2002, dated 2008).
Where two headings read alike, the source gives them in different places.

How the values were obtained:
[1] = tested on: rat isolated adipose tissue; conditions: cited from earlier work
[2] = cited from earlier work
DNA = conditions: cited from earlier work
[3] = tested on: Chinese hamster ovary cells; conditions: cited from earlier work
[4] = tested on: rat skeletal muscle cultures; conditions: rat skeletal muscle cultures in vitro; cited from earlier work
rat [5] = conditions: added to rat diet; cited from earlier work
Humans = conditions: dietary supplementation, males and females; cited from earlier work
rats = conditions: cited from earlier work
[6] = after oral administration; cited from earlier work
[7] = pH of aqueous solution of the complex; assay type: physicochemical; conditions: 0.1 molar in water
Protocol: (§1) A 10 ml portion was diluted with 200 ml of a 0.1 molar solution of sodium bicarbonate. […] An additional 600 ml of 0.1 molar sodium bicarbonate solution was added.
(§2) A 10 ml portion was diluted with 200 ml of a 0.1 molar solution of sodium bicarbonate.
as §2

[8] = Stability on addition of 0.1 molar sodium bicarbonate (precipitate formation); assay type: physicochemical
Protocol: as §1, §2, §2

[9] = tested on: periparturient dairy cows
Source text: The effects of supplementation with chromium in the form of chromium tri-L-methionine hydrochloride on performance of periparturient dairy cows were studied. Seventy-two cows were used to determine whether milk production and dry matter intake were affected by chromium tri-L-methionine hydrochloride supplementation of the diet during the periparturient period. Cows were fed either a diet high in nonforage fiber sources or high in non-fiber carbohydrates from day 21 before expected parturition until parturition and then fed a common lactating diet. Chromium tri-L-methionine hydrochloride was supplemented once daily via gelcap at doses of 0, 0.03, or 0.06 mg Cr/kg of metabolic body weight. Chromium supplementation began on day 21 before expected parturition and continued until day 28 postpartum. Cows were milked after calving according to established procedures. Feed intake was recorded daily for each cow throughout the experiment. Samples of the diet were obtained weekly and the dry matter contents were determined. Individual milk weights were recorded at each milking during the lactating phase of the experiment. Milk samples were taken from all milkings during one 24-hours period each week, composited based on the amount of milk produced at each milking, and analyzed for fat, protein, lactose, and total solids.

rat [10] = tested on: rat
Protocol: Fifty 6 weeks old rats were used in the study (25 females and 25 males). Their body weight ranged from 130 to 220 g for males and 120-190 g for females. The animals were housed in polycarbonate cages over dust-free sawdust bedding in groups of five. The cages were placed in an air-conditioned room at 22° C. and 55% relative humidity. Rats were fed pelleted complete diet ad libitum. Animals were fasted overnight before dosing and given food 3-4 hours after dosing. Animals given water ad libitum. Animals were assigned at random to one of five treatments. Two groups of five animals each, one group of males and one group of females were assigned to each treatment. The treatments were control, 250 mg/kg, 500 mg/kg, 1000 mg/kg and 2000 mg/kg doses. A solution of the compound in water was administered in a single oral dose by gastric gavage. Animals were maintained for a 14-day observation period after receiving the dose. Surviving animals were killed on day 14. The weight of animals were recorded immediately before treatment, twice weekly for the study period and at death.

[11] = 10 ml of 0.1 molar solution + 200 ml 0.1 molar sodium bicarbonate (20 molar equivalents)
[12] = slightly more than 2 equivalents of 0.1 molar sodium bicarbonate to a 0.1M solution
[13] = additional 600 ml 0.1 molar sodium bicarbonate (80 molar equivalents in all)

chromium dinicotinate
insulin activity [1]: potentiated

chromium picolinate
water solubility [2]: limited
DNA cleavage (DNA): cleaves DNA
chromosome damage [3]: produces chromosome damage
glucose uptake [4]: increased
glycation of hemoglobin (rat [5]): prevented
plasma glucose (rat [5]): significant decrease
lean body mass (Humans): significant increase
toxicity in rats (rats; rat, in vivo): lack of toxicity

CC(=O)/C=C(/C)[O-].CC(=O)/C=C(/C)[O-].CC(=O)/C=C(/C)[O-].[Cr+3] [Chromium Acetylacetonate]
absorption from the gastrointestinal tract [6]: rapidly absorbed

Chromium (III) Tri-leucinate Hydrochloride [Example 2]
pH of a 0.1 molar solution in water [7]: 3.996
pH of the solution after sodium bicarbonate [8, 11]: 7.987
precipitate formation [8, 11]: No precipitate was formed

[Cl][Cr]([Cl])[Cl] [chromium chloride, reference compound]
pH of the mixture [8, 12]: 4.356
precipitate formation [8, 12]: voluminous precipitate
toxicity in rats (rats; rats): lack of toxicity

Chromium (III) Tri-methionate Hydrochloride [Example 1]
pH of a 0.1 molar solution in water [7]: 4.078
pH of the solution after sodium bicarbonate [8, 11]: 8.097
precipitate formation [8, 11]: No precipitate was formed
pH of the solution after sodium bicarbonate [8, 13]: 8.354
precipitate formation [8, 13]: No precipitate was formed
% Milk Fat ([9]; 0.03 mg/kg BW^.75): 4.41%
% Milk Lactose ([9]; 0.03 mg/kg BW^.75): 4.69%
% Milk Protein ([9]; 0.03 mg/kg BW^.75): 3.37%
% Milk Solids ([9]; 0.03 mg/kg BW^.75): 13.39%
Milk Fat ([9]; 0.03 mg/kg BW^.75): 1.76 kg/day
Milk Lactose ([9]; 0.03 mg/kg BW^.75): 1.91 kg/day
Milk Production ([9]; 0.03 mg/kg BW^.75): 40.6 kg/day
Milk Protein ([9]; 0.03 mg/kg BW^.75): 1.33 kg/day
Milk Solids ([9]; 0.03 mg/kg BW^.75): 5.37 kg/day
Postpartum Dry Matter Intake ([9]; 0.03 mg/kg BW^.75): 18.9 kg/day
Prepartum Dry Matter Intake ([9]; 0.03 mg/kg BW^.75): 13.9 kg/day
% Milk Fat ([9]; 0.06 mg/kg BW^.75): 4.33%
% Milk Lactose ([9]; 0.06 mg/kg BW^.75): 4.61%
% Milk Protein ([9]; 0.06 mg/kg BW^.75): 3.15%
% Milk Solids ([9]; 0.06 mg/kg BW^.75): 13.03%
Milk Fat ([9]; 0.06 mg/kg BW^.75): 1.81 kg/day
Milk Lactose ([9]; 0.06 mg/kg BW^.75): 1.98 kg/day
Milk Production ([9]; 0.06 mg/kg BW^.75): 42.8 kg/day
Milk Protein ([9]; 0.06 mg/kg BW^.75): 1.31 kg/day
Milk Solids ([9]; 0.06 mg/kg BW^.75): 5.51 kg/day
Postpartum Dry Matter Intake ([9]; 0.06 mg/kg BW^.75): 19.4 kg/day
Prepartum Dry Matter Intake ([9]; 0.06 mg/kg BW^.75): 13.7 kg/day
effect on dry matter intake in cows ([9]; diet supplementation, 0.03 or 0.06 mg Cr/kg metabolic body weight): did not affect
body weight gain (rat [10]; 2000 mg/kg dose, 4000 folds the recommended dose): slight decrease
food consumption compared to control (rat [10]; 1000 and 2000 mg/kg doses): dose related decrease
gain in body weight (rat [10]; dose 2000 folds the recommended dose): not associated with a decrease
toxicity in rats (rat [10]; doses used / high doses): non-toxic
decrease in body weight gain (rat [10]; male rats, 2000 mg/kg single oral dose): 5%
macroscopic abnormalities at necropsy (rat [10]; necropsied on day 14 after the oral dose): no macroscopic abnormalities
mortality (rat [10]; single oral dose 250-2000 mg/kg, 14-day observation): No animals died
treatment-related clinical signs (rat [10]; single oral dose, any of the dose levels (250-2000 mg/kg)): no treatment-related clinical signs
toxicity (rat [10]; single oral dose, dose levels 1000 folds the recommended dose in pigs): did not induce any toxicity
